Experiments:
[1] = target: Recombinant G2019S-LRRK2 protein (Homo sapiens (Human), UniProt Q5S007, G2019S); test: LRRK2 kinase activity, LanthaScreen TR-FRET assay (G2019S); type: biochemical; settings: LRRKtide 400 nM, 25 μM ATP, 60 min
Method: (§1) LRRK2 kinase activity was measured using a LanthaScreen™ Kinase Activity Assay from ThermoFisher Scientific. Recombinant wild type or G2019S-LRRK2 protein (Life Technologies, PR8604B or PV4881, respectively), was incubated with a fluorescein-labeled peptide substrate called LRRKtide that is based upon ezrin/radixin/moesin (ERM) (Life Technologies, PV4901) in the presence of ATP and serially diluted compound. […] Compound-dependent inhibition of the TR-FRET signal was used to generate a concentration-response curve for IC50 determination.
(§2) After 60 min incubation at room temperature, the reaction was stopped by addition of 10 μL of 2× stop solution containing a final concentration of 2 nM anti-pERM antibody and 10 mM EDTA. […] The ratio of the 520 nm and 495 nm emission was used to analyze the data.

[2] = target: Recombinant wild type LRRK2 protein (Homo sapiens (Human), UniProt Q5S007); test: LRRK2 kinase activity, LanthaScreen TR-FRET assay (wild type); type: biochemical; settings: LRRKtide 400 nM, 25 μM ATP, 60 min; read-out: LRRK2 WT IC50
Recombinant wild type LRRK2 protein, sequence (Q5S007 whole entry): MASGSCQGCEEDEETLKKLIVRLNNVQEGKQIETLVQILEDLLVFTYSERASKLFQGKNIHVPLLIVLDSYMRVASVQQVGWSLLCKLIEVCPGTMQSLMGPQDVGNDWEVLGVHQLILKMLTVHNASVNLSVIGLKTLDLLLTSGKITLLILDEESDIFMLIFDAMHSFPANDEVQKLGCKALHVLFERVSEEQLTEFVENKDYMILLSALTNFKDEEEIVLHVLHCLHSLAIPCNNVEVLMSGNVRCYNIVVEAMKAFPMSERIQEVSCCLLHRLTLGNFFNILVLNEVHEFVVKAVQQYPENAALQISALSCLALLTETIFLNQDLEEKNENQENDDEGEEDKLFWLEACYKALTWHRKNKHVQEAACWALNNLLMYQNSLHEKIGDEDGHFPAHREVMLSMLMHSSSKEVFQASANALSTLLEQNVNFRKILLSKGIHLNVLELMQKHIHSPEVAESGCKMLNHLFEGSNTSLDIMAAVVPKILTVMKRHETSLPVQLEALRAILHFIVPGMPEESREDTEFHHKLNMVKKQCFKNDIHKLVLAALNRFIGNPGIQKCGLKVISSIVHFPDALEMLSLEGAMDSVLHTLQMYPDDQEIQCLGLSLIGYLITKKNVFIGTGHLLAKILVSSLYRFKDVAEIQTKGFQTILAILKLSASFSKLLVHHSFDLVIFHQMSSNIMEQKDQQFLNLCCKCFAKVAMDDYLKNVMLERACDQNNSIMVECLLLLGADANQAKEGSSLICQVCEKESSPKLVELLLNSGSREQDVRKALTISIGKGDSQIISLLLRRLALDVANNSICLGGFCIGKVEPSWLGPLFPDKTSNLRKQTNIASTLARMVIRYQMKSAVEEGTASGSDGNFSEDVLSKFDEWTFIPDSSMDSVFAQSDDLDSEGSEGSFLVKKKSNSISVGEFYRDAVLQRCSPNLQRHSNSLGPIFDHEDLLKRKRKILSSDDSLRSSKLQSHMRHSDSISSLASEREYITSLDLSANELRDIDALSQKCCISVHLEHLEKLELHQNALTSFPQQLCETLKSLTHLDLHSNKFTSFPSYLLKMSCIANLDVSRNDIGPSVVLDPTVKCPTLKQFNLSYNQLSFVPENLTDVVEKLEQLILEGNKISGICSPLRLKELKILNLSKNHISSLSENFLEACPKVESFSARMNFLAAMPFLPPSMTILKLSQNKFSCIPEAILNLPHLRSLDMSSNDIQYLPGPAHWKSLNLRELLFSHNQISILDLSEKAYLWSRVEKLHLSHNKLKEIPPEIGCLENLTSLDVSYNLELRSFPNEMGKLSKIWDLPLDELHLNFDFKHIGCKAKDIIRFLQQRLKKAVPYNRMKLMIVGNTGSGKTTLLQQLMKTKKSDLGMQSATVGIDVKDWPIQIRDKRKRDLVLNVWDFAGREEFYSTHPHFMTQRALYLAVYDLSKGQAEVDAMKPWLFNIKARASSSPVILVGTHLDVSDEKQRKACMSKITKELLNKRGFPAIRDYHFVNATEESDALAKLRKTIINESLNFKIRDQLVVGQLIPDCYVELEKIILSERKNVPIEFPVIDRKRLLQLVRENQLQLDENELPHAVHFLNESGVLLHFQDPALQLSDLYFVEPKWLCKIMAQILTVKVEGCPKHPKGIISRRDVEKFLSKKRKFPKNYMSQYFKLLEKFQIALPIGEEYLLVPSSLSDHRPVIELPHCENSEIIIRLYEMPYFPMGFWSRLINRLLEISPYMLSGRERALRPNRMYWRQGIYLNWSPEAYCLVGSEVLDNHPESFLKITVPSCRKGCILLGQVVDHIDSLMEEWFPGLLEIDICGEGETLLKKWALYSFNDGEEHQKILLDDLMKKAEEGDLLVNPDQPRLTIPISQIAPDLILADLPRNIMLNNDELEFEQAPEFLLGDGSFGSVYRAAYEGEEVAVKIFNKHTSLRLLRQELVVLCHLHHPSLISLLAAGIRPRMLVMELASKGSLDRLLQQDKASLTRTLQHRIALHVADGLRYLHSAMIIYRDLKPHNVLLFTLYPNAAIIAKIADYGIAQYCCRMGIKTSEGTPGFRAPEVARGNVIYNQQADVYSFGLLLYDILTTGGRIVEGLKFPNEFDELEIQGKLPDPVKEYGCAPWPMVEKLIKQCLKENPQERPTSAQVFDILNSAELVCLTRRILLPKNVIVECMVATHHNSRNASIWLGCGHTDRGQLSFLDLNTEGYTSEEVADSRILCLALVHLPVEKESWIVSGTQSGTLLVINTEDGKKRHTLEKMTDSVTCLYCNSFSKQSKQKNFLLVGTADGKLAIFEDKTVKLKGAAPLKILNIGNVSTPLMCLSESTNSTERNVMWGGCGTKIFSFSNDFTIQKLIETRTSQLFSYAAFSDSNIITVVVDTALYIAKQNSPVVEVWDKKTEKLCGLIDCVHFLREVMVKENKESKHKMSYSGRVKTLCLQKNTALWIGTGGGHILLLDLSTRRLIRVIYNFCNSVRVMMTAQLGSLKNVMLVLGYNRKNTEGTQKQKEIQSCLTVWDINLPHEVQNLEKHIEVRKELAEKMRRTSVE
Method: as §1, §2

Recombinant G2019S-LRRK2 protein, sequence (Q5S007 whole entry G2019S): as the sequence (Q5S007 whole entry) above, with G2019S counted along it

| SMILES | IC50 [1] | IC50 [2] |
| --- | --- | --- |
| N#Cc1cnc(C(=O)Nc2ccc3[nH]nc(-c4ccoc4)c3c2)s1 [Example 65, 5-Cyano-N-(3-(furan-3-yl)-1H-indazol-5-yl)thiazole-2-carboxamide] | < 0.1 µM | < 0.1 µM |
| N#Cc1cnc(C(=O)Nc2ccc3[nH]nc(-c4ccoc4)c3c2)cc1Cl [Example 66, 4-Chloro-5-cyano-N-(3-(furan-3-yl)-1H-indazol-5-yl)picolinamide] | 0.1 to 1 µM | 0.1 to 1 µM |
| Cc1c(C#N)cnc(C(=O)Nc2ccc3[nH]nc(-c4ccoc4)c3c2)c1C [Example 67, 5-Cyano-N-(3-(furan-3-yl)-1H-indazol-5-yl)-3,4-dimethylpicolinamide] | < 0.1 µM | < 0.1 µM |
| COc1cncc(-c2n[nH]c3ccc(NC(=O)c4ncc(C#N)cc4C)cc23)c1 [Example 68, 5-Cyano-N-(3-(5-methoxypyridin-3-yl)-1H-indazol-5-yl)-3-methylpicolinamide] | < 0.1 µM | 0.1 to 1 µM |
| COc1cc(C#N)cnc1C(=O)Nc1ccc2[nH]nc(-c3ccoc3)c2c1 [Example 69, 5-Cyano-N-(3-(furan-3-yl)-1H-indazol-5-yl)-3-methoxypicolinamide] | < 0.1 µM | 0.1 to 1 µM |
| Cc1cc(C#N)cnc1C(=O)Nc1ccc2[nH]nc(-c3ccc(N4CCOCC4)cc3)c2c1 [Example 70, 5-Cyano-3-methyl-N-(3-(4-morpholinophenyl)-1H-indazol-5-yl)picolinamide] | < 0.1 µM | 0.1 to 1 µM |
| Cc1cc(C#N)cnc1C(=O)Nc1ccc2[nH]nc(-c3ccc4ocnc4c3)c2c1 [Example 71, N-(3-(Benzo[d]oxazol-5-yl)-1H-indazol-5-yl)-5-cyano-3-methylpicolinamide] | < 0.1 µM | 0.1 to 1 µM |
| COc1c(C#N)cccc1C(=O)Nc1ccc2[nH]nc(-c3ccoc3)c2c1 [Example 72, 3-Cyano-N-(3-(furan-3-yl)-1H-indazol-5-yl)-2-methoxybenzamide] | < 0.1 µM | < 0.1 µM |
| Cc1cc(C#N)cnc1C(=O)Nc1ccc2[nH]nc(-c3ccsc3)c2c1 [Example 73, 5-Cyano-3-methyl-N-(3-(thiophen-3-yl)-1H-indazol-5-yl)picolinamide] | < 0.1 µM | 0.1 to 1 µM |
| Cc1cc(-c2n[nH]c3ccc(NC(=O)c4ncc(C#N)cc4C)cc23)ccn1 [Example 74, 5-Cyano-3-methyl-N-(3-(2-methylpyridin-4-yl)-1H-indazol-5-yl)picolinamide] | < 0.1 µM | < 0.1 µM |
| CCc1c(C#N)cccc1C(=O)Nc1ccc2[nH]nc(-c3ccoc3)c2c1 [Example 75, 3-Cyano-2-ethyl-N-(3-(furan-3-yl)-1H-indazol-5-yl)benzamide] | < 0.1 µM | < 0.1 µM |
| Cc1cc(C#N)cnc1C(=O)Nc1ccc2[nH]nc(-c3coc(C#N)c3)c2c1 [Example 76, 5-Cyano-N-(3-(5-cyanofuran-3-yl)-1H-indazol-5-yl)-3-methylpicolinamide] | < 0.1 µM | < 0.1 µM |
| N#Cc1cccc(C(=O)Nc2ccc3[nH]nc(-c4ccoc4)c3c2)c1F [Example 77, 3-Cyano-2-fluoro-N-(3-(furan-3-yl)-1H-indazol-5-yl)benzamide] | < 0.1 µM | < 0.1 µM |
| Cc1cc(C#N)cc(C(=O)Nc2ccc3[nH]nc(-c4ccoc4)c3c2)n1 [Example 78, 4-Cyano-N-(3-(furan-3-yl)-1H-indazol-5-yl)-6-methylpicolinamide] | < 0.1 µM | 0.1 to 1 µM |
| N#Cc1ccnc(C(=O)Nc2ccc3[nH]nc(-c4ccoc4)c3c2)c1F [Example 79, 4-Cyano-3-fluoro-N-(3-(furan-3-yl)-1H-indazol-5-yl)picolinamide] | 0.1 to 1 µM | 0.1 to 1 µM |
| Cc1cc(C#N)cnc1C(=O)Nc1cc(C)c2[nH]nc(-c3ccoc3)c2c1 [Example 80, 5-Cyano-N-(3-(furan-3-yl)-7-methyl-1H-indazol-5-yl)-3-methylpicolinamide] | 0.1 to 1 µM | 1 to 10 µM |
| Cc1nn(C)c(C#N)c1C(=O)Nc1ccc2[nH]nc(-c3ccoc3)c2c1 [Example 81, 5-Cyano-N-(3-(furan-3-yl)-1H-indazol-5-yl)-1,3-dimethyl-1H-pyrazole-4-carboxamide] | < 0.1 µM | < 0.1 µM |
| N#Cc1cc(C(=O)Nc2ccc3[nH]nc(-c4ccoc4)c3c2)no1 [Example 82, 5-Cyano-N-(3-(furan-3-yl)-1H-indazol-5-yl)isoxazole-3-carboxamide] | < 0.1 µM | < 0.1 µM |
| CCc1cc(C#N)cnc1C(=O)Nc1ccc2[nH]nc(-c3ccoc3)c2c1 [Example 83, 5-Cyano-3-ethyl-N-(3-(furan-3-yl)-1H-indazol-5-yl)picolinamide] | < 0.1 µM | 0.1 to 1 µM |

| SMILES | IC50 [1] | IC50 [2] |
| --- | --- | --- |
| C=Cc1cc(C#N)cnc1C(=O)Nc1ccc2[nH]nc(-c3ccoc3)c2c1 [Example 84, 5-Cyano-N-(3-(furan-3-yl)-1H-indazol-5-yl)-3-vinylpicolinamide] | < 0.1 µM | 0.1 to 1 µM |
| Cc1cc(C(=O)Nc2ccc3[nH]nc(-c4ccoc4)c3c2)nc(C)c1C#N [Example 85, 5-cyano-N-(3-(furan-3-yl)-1H-indazol-5-yl)-4,6-dimethylpicolinamide] | < 0.1 µM | 1 to 10 µM |
| N#Cc1cccc(C(=O)Nc2ccc3[nH]nc(-c4ccoc4)c3c2)c1Cl [Example 86, 2-chloro-3-cyano-N-(3-(furan-3-yl)-1H-indazol-5-yl)benzamide] | < 0.1 µM | < 0.1 µM |
| Cc1cc(C#N)cnc1C(=O)Nc1ccc2[nH]nc(I)c2c1 [Example 87, 5-cyano-N-(3-iodo-1H-indazol-5-yl)-3-methylpicolinamide] | < 0.1 µM | 0.1 to 1 µM |
| Cc1c(C#N)cccc1C(=O)Nc1cc(C)c2[nH]nc(-c3ccoc3)c2c1 [Example 88, 3-cyano-N-(3-(furan-3-yl)-7-methyl-1H-indazol-5-yl)-2-methylbenzamide] | 0.1 to 1 µM | 1 to 10 µM |
| N#Cc1cccc(C(=O)Nc2ccc3[nH]nc(-c4ccoc4)c3c2)c1Br [Example 89, 2-bromo-3-cyano-N-(3-(furan-3-yl)-1H-indazol-5-yl)benzamide] | < 0.1 µM | < 0.1 µM |
| Cc1c(C(=O)Nc2ccc3[nH]nc(-c4ccoc4)c3c2)c(C#N)nn1C [Example 90, 3-Cyano-N-(3-(furan-3-yl)-1H-indazol-5-yl)-1,5-dimethyl-1H-pyrazole-4-carboxamide] | < 0.1 µM | < 0.1 µM |
| N#Cc1cc(C(=O)Nc2ccc3[nH]nc(-c4ccoc4)c3c2)ns1 [Example 91, 5-Cyano-N-(3-(furan-3-yl)-1H-indazol-5-yl)isothiazole-3-carboxamide] | < 0.1 µM | < 0.1 µM |
| Cc1c(C#N)nn(C)c1C(=O)Nc1ccc2[nH]nc(-c3ccoc3)c2c1 [Example 92, 3-Cyano-N-(3-(furan-3-yl)-1H-indazol-5-yl)-1,4-dimethyl-1H-pyrazole-5-carboxamide] | < 0.1 µM | 0.1 to 1 µM |
| Cc1c(C(=O)Nc2ccc3[nH]nc(-c4ccoc4)c3c2)nn(C)c1C#N [Example 93, 5-Cyano-N-(3-(furan-3-yl)-1H-indazol-5-yl)-1,4-dimethyl-1H-pyrazole-3-carboxamide] | 0.1 to 1 µM | 0.1 to 1 µM |
| Cc1cc(C(=O)Nc2ccc3[nH]nc(-c4ccoc4)c3c2)ncc1C#N [Example 94, 5-Cyano-N-(3-(furan-3-yl)-1H-indazol-5-yl)-4-methylpicolinamide] | < 0.1 µM | 0.1 to 1 µM |
| N#Cc1cnc(C(=O)Nc2ccc3[nH]nc(-c4ccoc4)c3c2)c(Cl)c1 [Example 95, 3-chloro-5-cyano-N-(3-(furan-3-yl)-1H-indazol-5-yl)picolinamide] | < 0.1 µM | < 0.1 µM |
| Cn1c(C#N)cnc1C(=O)Nc1ccc2[nH]nc(-c3ccoc3)c2c1 [Example 96, 5-Cyano-N-(3-(furan-3-yl)-1H-indazol-5-yl)-1-methyl-1H-imidazole-2-carboxamide] | 0.1 to 1 µM | 0.1 to 1 µM |
| Cn1nc(C(=O)Nc2ccc3[nH]nc(-c4ccoc4)c3c2)cc1C#N [Example 97, 5-Cyano-N-(3-(furan-3-yl)-1H-indazol-5-yl)-1-methyl-1H-pyrazole-3-carboxamide] | < 0.1 µM | 0.1 to 1 µM |
| Cc1ccccc1-c1n[nH]c2ccc(NC(=O)c3ncc(C#N)cc3C)cc12 [Example 98, 5-Cyano-3-methyl-N-(3-(o-tolyl)-1H-indazol-5-yl)picolinamide] | 1 to 10 µM | > 10 µM |
| COc1ccccc1-c1n[nH]c2ccc(NC(=O)c3ncc(C#N)cc3C)cc12 [Example 99, 5-Cyano-N-(3-(2-methoxyphenyl)-1H-indazol-5-yl)-3-methylpicolinamide] | 0.1 to 1 µM | 1 to 10 µM |
| Cc1cc(C#N)cnc1C(=O)Nc1ccc2[nH]nc(-c3ccoc3)c2n1 [Example 100, 5-Cyano-N-(3-(furan-3-yl)-1H-pyrazolo[4,3-b]pyridin-5-yl)-3-methylpicolinamide] | < 0.1 µM | < 0.1 µM |
| Cc1cc(C#N)cnc1C(=O)Nc1ccc2[nH]nc(-c3ccno3)c2c1 [Example 101, 5-Cyano-N-(3-(isoxazol-5-yl)-1H-indazol-5-yl)-3-methylpicolinamide] | < 0.1 µM | 0.1 to 1 µM |
| Cc1cc(C#N)cnc1C(=O)Nc1ccc2[nH]nc(-c3ccc(CN4CCOCC4)s3)c2c1 [Example 102, 5-Cyano-3-methyl-N-(3-(5-(morpholinomethyl)thiophen-2-yl)-1H-indazol-5-yl)picolinamide] | < 0.1 µM | 0.1 to 1 µM |

Source: US11427558B1, “Indazoles and azaindazoles as LRRK2 inhibitors” (ESCAPE Bio, Inc., priority 2019, dated 2022)
